The values that follow come from patent US8557995B2, “Solid dispersions containing kinase inhibitors” (AbbVie Inc., priority 2010, dated 2013).

A value given as a limit tells only on which side of the number the result lay.

The nature of this series: solubility in water. As to conditions: pH 7.4, aqueous buffer. The class given is physicochemical. From the text:
Examples of such active ingredients are, for example, Biopharmaceutics Classification System (BCS) Class IV drug substances that are characterized by low solubility and low permeability (see “Waiver of in vivo bioavailability and bioequivalence studies for immediate-release solid oral dosage forms based on a biopharmaceutics classification system”, U.S. Department of Health and Human Services, Food and Drug Administration, Center for Drug Evaluation and Research (CDER), August 2000). It will be recognized that aqueous solubility of many compounds is pH-dependent; in the case of such compounds the solubility of interest herein is at a physiologically relevant pH, for example a pH of about 1 to about 8.

The solubility is the concentration that dissolves in the medium under given conditions. Low values mean little dissolved substance, high ones much dissolved substance. As to `Nc1ncc(-c2cnn(CCO)c2)c2scc(-c3ccc(NC(=O)Nc4cccc(F)c4)cc3)c12` [N-(4-{4-amino-7-[1-(2-hydroxyethyl)-1H-pyrazol-4-yl]thieno[3,2-c]pyridin-3-yl}phenyl)-N′-(3-fluorophenyl)urea], the solubility was less than 0.03 µg/mL.
